Key:
PP1M = assay: Phosphatase assay in anti-MBS immunopellets; type: biochemical, human
[1] = system: myosin light chain phosphorylation in rat aortic smooth muscle cells; assay: Agonist-stimulated myosin light chain phosphorylation in intact vascular smooth muscle cells; type: cell-based; conditions: n=3
Text: The extent of agonist-stimulated myosin light chain phosphorylation was quantified in intact vascular smooth muscle cells transfected with either vector alone or a plasmid expressing the cGK1α leucine/isoleucine zipper domain (CGK1-59), to examine the effects of disrupting the cGK1α-MBS interaction on cGMP-mediated inhibition of myosin light chain phosphorylation. cGK1α1-59 was cloned into the mammalian expression vector pCI (Promega, Madison, Wis.). Rat aortic smooth muscle cells of passage 6 through 10 were transfected with either vector alone (pCI) or cDNA for the leucine/isoleucine zipper peptide from cGK (cGK1α1-59pCI) by electroporation. Cells were arrested in DME supplemented with insulin, ascorbic acid and transferrin, then stimulated with 2 μM of the thromboxane analogue U46619 for 1 minute in the absence or presence of 20 minute pretreatment with 1 mM 8-Br-cGMP. Following treatment, cells were precipitated with trichloroacetic acid, washed with acetone, and protein was subjected to glycerol-urea electrophoresis (Taylor et al., J. Biol Chem. 263, 14456, 1988). Myosin light chain phosphorylation state was quantified by immunoblotting the unphosphorylated and phosphorylated forms of myosin light chain with monoclonal antimyosin light chain antibody (Sigma, clone MY-21). Protein bands were analyzed by densitometry. Statistical analysis was performed using Student-Newman-Keuls method. Data represent the means+/−standard error of three separate experiments in duplicate.

[2] = target: T1, AL9 (carboxy-terminal 181 amino acids of MBS) (Homo sapiens, UniProt O14974); assay: Yeast two-hybrid interaction assay (HIS3 and LacZ reporter activation); type: binding; conditions: yeast strain Y190
T1 construct: expressed in transfected cells; host or cells: Saccharomyces cerevisiae Y190
T1 sequence (O14974 850-1030 limits assumed): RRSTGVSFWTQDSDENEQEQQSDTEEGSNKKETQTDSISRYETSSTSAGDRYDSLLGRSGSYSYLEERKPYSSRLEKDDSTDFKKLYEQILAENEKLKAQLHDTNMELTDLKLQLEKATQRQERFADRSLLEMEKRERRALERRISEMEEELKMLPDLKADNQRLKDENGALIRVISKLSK
Procedure: Colonies were lifted onto NitroPure nitrocellulose filters (MSI, Westboro, Mass.) which were then submerged in liquid nitrogen for 15 seconds, placed on presoaked Whatman #5 paper (in Z buffer: 60 mM Na2HPO4.7H2O, 40 mM NaH2PO4.H2O, 10 mM KCl, 1 mM MgSO4.7H2O), 50 mM β-mercaptoethanol, pH 7.0, and incubated at 37° for up to 12 hours.
Polypeptides interacting with cGK-PC97 were detected by their ability to activate transcription of histidine (HIS3) and β-galactosidase (LacZ) reporter genes via reconstitution of the Gal4 transcription factor. MaV103 colonies capable of growing on media lacking histidine were assayed for β-galactosidase activity using the colony-lift filter assay, according to standard techniques and as described herein. PC86 plasmids (containing the activated T cell library) from His3+, LacZ+ colonies were isolated and the library cDNA insert sequenced. 2.5×10^6 clones were screened from the T cell library.
To verify the interaction of AL9 with cGK1α, individual plasmids were introduced into S. cerevisiae strain Y190 (Clontech, Palo Alto, Calif.) by the lithium acetate method and assayed for reporter gene activation, as above. Y190 was transformed with cGK1α/GalDB or GalDB alone, in combination with AL9/GalAD or GalAD alone, and plated on Sc-His (synthetic complete medium, minus histidine) and YPD (yeast extract, peptone, dextrose) plates. β-galactosidase activity assays, on colonies from the YPD plate, were also performed. […] Thus, cotransformation of AL9 and cGK1α into S. cerevisiae confirmed the interaction of full-length cGK1α with the carboxy-terminal 181 amino acids of MBS.
Yeast strain Y190 was transformed with AL9/GalAD in combination with the cGK1α/GalDB truncation mutants and plated on YPD and Sc-His plates. Colony lift β-Galactosidase assays for the yeast colonies growing on the YPD plate were also performed. […] Thus, the C-terminus of MBS (AL9) interacts with the N-terminus of cGK1α (cGK1α1-59).
Site-directed mutagenesis was employed to replace selected leucine or isoleucine residues in the N-terminus of cGKIα. cGK1α1-59 was cloned into vector pcDNA3.1 (Invitrogen, Carlsbad, Calif.) using the method of Kunkel et al. (Kunkel et al., Methods in Enzymology, 154: 367-382, 1987). Three mutants of the leucine/isoleucine zipper of cGKIα were prepared: Leu12 and Ile19 to Ala (cGKLLZ1,2A); Leu26 to Pro (cGKLZ3P); Ile33 and Leu40 to Ala (cGKLZ4,5A). All mutants were confirmed by DNA sequencing, then subcloned into vector PC97 for expression in yeast. cGKLz1,2A, GKLZ3P, and GKLZ4,5A were each cotransformed with AL9 in yeast strain Y190 , and reporter gene activation assayed as described herein.

[3] = target: T2, PP1M phosphatase activity (Homo sapiens, UniProt P62140); assay: Phosphatase assay in cGKIα immunopellets; type: biochemical
T2 construct: cGKIα was immunoprecipitated and phosphatase activity was assayed in the immunopellets as described herein; endogenous in cells; host or cells: human saphenous vein smooth muscle cells
T2 sequence (P62140 whole entry): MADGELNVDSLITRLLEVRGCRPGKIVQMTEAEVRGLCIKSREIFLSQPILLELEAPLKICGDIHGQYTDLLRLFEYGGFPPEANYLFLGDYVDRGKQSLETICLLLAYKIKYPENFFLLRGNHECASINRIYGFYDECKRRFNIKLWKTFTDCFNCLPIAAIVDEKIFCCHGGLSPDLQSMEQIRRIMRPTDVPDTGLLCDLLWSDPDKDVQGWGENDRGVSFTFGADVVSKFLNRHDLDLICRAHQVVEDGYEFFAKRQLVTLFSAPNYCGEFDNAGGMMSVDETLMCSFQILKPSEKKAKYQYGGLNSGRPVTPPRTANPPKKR
T2 sequence (O14974 whole entry partner): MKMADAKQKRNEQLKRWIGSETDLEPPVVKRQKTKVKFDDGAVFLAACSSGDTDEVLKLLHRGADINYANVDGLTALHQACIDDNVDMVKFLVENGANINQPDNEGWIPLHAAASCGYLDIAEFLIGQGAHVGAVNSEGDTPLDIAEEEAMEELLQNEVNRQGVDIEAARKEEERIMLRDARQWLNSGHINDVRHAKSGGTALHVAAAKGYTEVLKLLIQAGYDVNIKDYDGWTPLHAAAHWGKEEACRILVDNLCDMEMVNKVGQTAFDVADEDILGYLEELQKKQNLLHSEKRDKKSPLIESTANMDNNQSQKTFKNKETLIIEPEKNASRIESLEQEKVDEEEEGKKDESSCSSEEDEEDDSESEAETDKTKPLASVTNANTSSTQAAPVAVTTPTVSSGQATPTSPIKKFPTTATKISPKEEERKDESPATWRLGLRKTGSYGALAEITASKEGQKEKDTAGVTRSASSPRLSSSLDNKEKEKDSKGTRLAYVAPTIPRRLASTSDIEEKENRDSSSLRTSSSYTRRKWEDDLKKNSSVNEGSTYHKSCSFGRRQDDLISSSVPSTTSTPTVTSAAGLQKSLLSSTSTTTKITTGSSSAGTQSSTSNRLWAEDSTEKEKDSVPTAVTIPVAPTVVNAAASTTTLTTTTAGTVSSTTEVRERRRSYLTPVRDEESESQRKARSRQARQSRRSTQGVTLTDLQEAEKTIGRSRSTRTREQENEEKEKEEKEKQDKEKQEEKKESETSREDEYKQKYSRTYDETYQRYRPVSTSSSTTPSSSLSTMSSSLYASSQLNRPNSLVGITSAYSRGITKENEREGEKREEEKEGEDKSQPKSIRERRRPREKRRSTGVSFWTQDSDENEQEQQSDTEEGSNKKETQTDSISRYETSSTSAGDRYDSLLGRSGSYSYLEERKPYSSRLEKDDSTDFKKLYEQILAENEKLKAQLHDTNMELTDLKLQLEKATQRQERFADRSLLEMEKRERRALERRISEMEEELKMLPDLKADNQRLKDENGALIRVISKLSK
T2 sequence (Q13976 whole entry partner): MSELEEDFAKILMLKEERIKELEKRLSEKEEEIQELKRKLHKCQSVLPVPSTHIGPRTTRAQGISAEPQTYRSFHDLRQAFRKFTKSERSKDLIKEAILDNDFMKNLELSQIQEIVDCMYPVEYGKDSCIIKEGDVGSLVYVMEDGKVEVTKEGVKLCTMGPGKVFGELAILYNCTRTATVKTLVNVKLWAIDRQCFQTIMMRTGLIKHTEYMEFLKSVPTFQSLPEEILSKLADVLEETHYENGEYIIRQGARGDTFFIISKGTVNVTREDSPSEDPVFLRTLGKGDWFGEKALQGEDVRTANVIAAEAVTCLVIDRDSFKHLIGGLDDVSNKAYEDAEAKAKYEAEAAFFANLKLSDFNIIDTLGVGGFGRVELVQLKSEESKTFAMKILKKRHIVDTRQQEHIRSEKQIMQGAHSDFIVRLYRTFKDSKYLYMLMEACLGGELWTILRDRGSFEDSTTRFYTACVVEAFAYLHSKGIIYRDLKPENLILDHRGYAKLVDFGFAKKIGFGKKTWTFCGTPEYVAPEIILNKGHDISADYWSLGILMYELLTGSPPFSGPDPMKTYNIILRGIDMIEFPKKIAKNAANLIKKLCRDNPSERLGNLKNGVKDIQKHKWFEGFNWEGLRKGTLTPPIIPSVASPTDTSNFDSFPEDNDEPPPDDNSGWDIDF
Procedure: Immunopellets, prepared as described herein, were washed and resuspended in phosphatase assay buffer A (20 mM MOPS, 20 mM glucose, 1 mM dithiothreitol, 1 mM theophylline, 1 mg/ml BSA, and 5 mM azide, pH 7.5). ^32P-labeled phosphorylase a (final concentration 10 μM; Dr. D. Brautigan, University of Virginia, Va.) in either buffer A alone, buffer A with 10 mM 8-bromo-cGMP, buffer A with 2 nM okadaic acid, or buffer A with 1 μM okadaic acid was added to the immunopellets. The reactions were incubated at 30° C. for 30 minutes and terminated with trichloroacetic acid. In separate experiments, ^32P-myosin light chains were used as substrate in place of phosphorylase a.
PP1M phosphatase activity in the cGKIα immunoprecipitates was measured against two known PP1M substrates, myosin light chain and phosphorylase a. cGKIα was immunoprecipitated and phosphatase activity was assayed in the immunopellets as described herein.

Molecule: Nc1nc2c(nc(Sc3ccc(Cl)cc3)n2[C@@H]2O[C@@H]3CO[P@@](=O)(S)O[C@H]3[C@H]2O)c(=O)[nH]1 [Rp-8-pCPT-cGMPS]
- effect on activation of PP1M by 8-bromo-cGMP (PP1M; preincubation of the complex with the inhibitor, two separate experiments): prevented

Molecule: Nc1nc2c(nc(Br)n2[C@@H]2O[C@@H]3COP(=O)(O)O[C@H]3[C@H]2O)c(=O)[nH]1 [8-bromo-cGMP]
- increase of PP1 phosphatase activity in the MBS immunopellet (PP1M; 8-bromo-cGMP added to anti-MBS immunopellets, n=5): 32+/−13%
- inhibition of U46619-stimulated myosin light chain phosphorylation ([1]; cells expressing cGK1-59, 20 minute pretreatment with 1 mM 8-Br-cGMP): 35%
- inhibition of U46619-mediated myosin light chain phosphorylation ([1]; control-transfected cells, 20 minute pretreatment with 1 mM 8-Br-cGMP): 79+/−17%

Molecule: cGKLZ3P: cGK1α1-59 mutant, Leu26 to Pro (MSELEEDFAKILMLKEERIKELEKRPSEKEEEIQELKRKLHKCQSVLPVPSTHIGPRTT; isoform alpha; UniProt Q13976 1-59, looked up, variant L26P)
- interaction with AL9/MBS in yeast two-hybrid (HIS and β-Gal reporter activation) [2]: failed to interact with MBS

Molecule: cGKLZ1,2A: cGK1α1-59 mutant, Leu12 and Ile19 to Ala (MSELEEDFAKIAMLKEERAKELEKRLSEKEEEIQELKRKLHKCQSVLPVPSTHIGPRTT; isoform alpha; UniProt Q13976 1-59, looked up, variant L12A I19A)
- interaction with AL9/MBS in yeast two-hybrid (HIS and β-Gal reporter activation) [2]: failed to interact with MBS

Molecule: cGK1α1-59: cGK1α truncation mutant containing amino acids 1-59, leucine/isoleucine zipper domain (MSELEEDFAKILMLKEERIKELEKRLSEKEEEIQELKRKLHKCQSVLPVPSTHIGPRTT; isoform alpha; UniProt Q13976 1-59, looked up, fragment)
- interaction with AL9/MBS in yeast two-hybrid (HIS and β-Gal reporter activation) [2]: interacted with AL9

Molecule: CCCCC[C@H](O)/C=C/[C@@H]1[C@@H](C/C=C\CCCC(=O)O)[C@H]2CO[C@@H]1C2 [U46619]
- myosin light chain phosphorylation ([1]; 2 μM U46619 for 1 minute, baseline 10+/−2%, vector control and cGK1-59-transfected cells): 68+/−2%

Molecule: cGKLZ4,5A: cGK1α1-59 mutant, Ile33 and Leu40 to Ala (MSELEEDFAKILMLKEERIKELEKRLSEKEEEAQELKRKAHKCQSVLPVPSTHIGPRTT; isoform alpha residues 1-59; UniProt Q13976 1-59, looked up, variant I33A L40A)
- interaction with AL9/MBS in yeast two-hybrid (HIS and β-Gal reporter activation) [2]: weak association with MBS

Molecule: C=C1[C@@H](O)[C@@H]2O[C@]3(CC[C@H](/C=C/[C@@H](C)[C@@H]4CC(C)=C[C@@]5(O[C@H](C[C@@](C)(O)C(=O)O)CC[C@H]5O)O4)O3)CC[C@H]2O[C@@H]1[C@@H](O)C[C@H](C)[C@H]1O[C@@]2(CCCCO2)CC[C@H]1C [okadaic acid]
- inhibition at 0.002 µM ([3]; 2 nM okadaic acid, n=3, P=NS): 12%
- inhibition at 1 µM ([3]; 1 μM okadaic acid, n=3, p<0.001 vs. untreated): 79%

B1: cGK1α68-667: cGK1α mutant corresponding to amino acids 68-667 (protein, UniProt Q13976 68-667, looked up, fragment)
chain: PQTYRSFHDLRQAFRKFTKSERSKDLIKEAILDNDFMKNLELSQIQEIVDCMYPVEYGKDSCIIKEGDVGSLVYVMEDGKVEVTKEGVKLCTMGPGKVFGELAILYNCTRTATVKTLVNVKLWAIDRQCFQTIMMRTGLIKHTEYMEFLKSVPTFQSLPEEILSKLADVLEETHYENGEYIIRQGARGDTFFIISKGTVNVTREDSPSEDPVFLRTLGKGDWFGEKALQGEDVRTANVIAAEAVTCLVIDRDSFKHLIGGLDDVSNKAYEDAEAKAKYEAEAAFFANLKLSDFNIIDTLGVGGFGRVELVQLKSEESKTFAMKILKKRHIVDTRQQEHIRSEKQIMQGAHSDFIVRLYRTFKDSKYLYMLMEACLGGELWTILRDRGSFEDSTTRFYTACVVEAFAYLHSKGIIYRDLKPENLILDHRGYAKLVDFGFAKKIGFGKKTWTFCGTPEYVAPEIILNKGHDISADYWSLGILMYELLTGSPPFSGPDPMKTYNIILRGIDMIEFPKKIAKNAANLIKKLCRDNPSERLGNLKNGVKDIQKHKWFEGFNWEGLRKGTLTPPIIPSVASPTDTSNFDSFPEDNDEPPPDDNSGW
modifications: isoform alpha
- interaction with AL9/MBS in yeast two-hybrid (HIS and β-Gal reporter activation) [2]: failed to associate with AL9

B2: cGK1α68-446: cGK1α mutant corresponding to amino acids 68-446 (protein, UniProt Q13976 68-446, looked up, fragment)
chain: PQTYRSFHDLRQAFRKFTKSERSKDLIKEAILDNDFMKNLELSQIQEIVDCMYPVEYGKDSCIIKEGDVGSLVYVMEDGKVEVTKEGVKLCTMGPGKVFGELAILYNCTRTATVKTLVNVKLWAIDRQCFQTIMMRTGLIKHTEYMEFLKSVPTFQSLPEEILSKLADVLEETHYENGEYIIRQGARGDTFFIISKGTVNVTREDSPSEDPVFLRTLGKGDWFGEKALQGEDVRTANVIAAEAVTCLVIDRDSFKHLIGGLDDVSNKAYEDAEAKAKYEAEAAFFANLKLSDFNIIDTLGVGGFGRVELVQLKSEESKTFAMKILKKRHIVDTRQQEHIRSEKQIMQGAHSDFIVRLYRTFKDSKYLYMLMEACLGGEL
modifications: isoform alpha
- interaction with AL9/MBS in yeast two-hybrid (HIS and β-Gal reporter activation) [2]: failed to associate with AL9

Source: patent US20010041346A1, “METHOD FOR ASSAYING COMPOUNDS AFFECTING SMOOTH MUSCLE CONTRACTILE STATE” (priority 1999, published 2001)
